Our source for the CC50 and IC50 values is paper PMC5881471, “CDK2 inhibitors as candidate therapeutics for cisplatin- and noise-induced hearing loss” (The Journal of Experimental Medicine, 2018).

One series can be described thus: in vitro. Further details: CellTiter-Glo cell viability, compound alone. The note with it: mouse, hei-oc1 cells; compound alone; read-out: LD50 (μM) in HEI cells. The source says: For this screen, caspase-3 cleavage was chosen as the endpoint indicating cisplatin-induced cell death, as it allowed the inhibition of cell death to be monitored at the level of any intracellular molecular target upstream of caspase-3 cleavage in the HEI-OC1 cell line ([Kalinec et al., 2003]; [Kim et al., 2010]). […] This screen has been described in detail elsewhere ([Teitz et al., 2016]). Assays were first optimized at the bench. Optimized aspects included the number of cells to be plated (1,600 cells/well), the cisplatin concentration (50 µM, based on the dose–response curve), the incubation time (22 h at 33°C in 10% CO2), and the concentration of pifithrin-α (17 µM). The Caspase-Glo 3/7 assay (Promega), which enables the measurement of light emitted as the result of caspase cleavage and is suitable for HTS, was used. The linearity of the Caspase-Glo 3/7 assay was validated, and it was verified that 0.5% DMSO had no effect on the cell death kinetics ([Hall et al., 2014]). Compound toxicity was tested by cell viability assay CellTiter-Glo (Promega) with compound alone. The Caspase-Glo 3/7 assay was then tested for reproducibility in the St. Jude robotic systems in 384-well plates (white, solid-bottom, tissue culture–treated, polystyrene plates; Corning). By using a pin tool, test compounds dissolved in DMSO were added to the screen to a final concentration of 8 µM, and cisplatin solution in PBS was added 2 min later to each well to a final concentration of 50 µM (in <0.5% DMSO; Fig. S1 A). The cells were incubated with the test compounds and cisplatin for 22 h at 33°C in 10% CO2, with the medium being as previously described ([Kalinec et al., 2003]); no γ IFN was added to slow the cells’ growth rate and to mimic as closely as possible the conditions of postmitotic, nondividing sensory epithelial (organ of Corti) cells. The 384-well plates were shaken and centrifuged after compound addition to enhance the reprod  Figure 1. […] (A) Screening of a bioactive compound library of 4,385 unique compounds, including 845 FDA-approved drugs, in HEI-OC1 cells. Cells treated with 50 µM cisplatin (red dots) were assigned 100% caspase-3/7 activity. Cells not treated with cisplatin, i.e., those grown in medium only (black dots) were assigned 0% caspase-3/7 activity. Each compound was added to a final concentration of 8 µM in the presence of 50 µM cisplatin (cyan dots). The cell-based screen mean Z′ was 0.75, the signal window was 12, and the signal fold change was 4.9. […] The caspase-3/7 IC50 activity and structure are indicated for each compound. Error bars: SEM. […] Phalloidin labels the HCs. (I–K) OHC survival (percentage; mean ± SEM) after treatment with various concentrations of compounds and/or cisplatin (CIS). The number of cochlear explants analyzed is indicated in each bar. *, P < 0.05 and **, P < 0.01 by one-way ANOVA followed by a Bonferroni comparison. We identified 177 hits that reduced cisplatin-induced caspase-3/7 activity by 60% or more. These compounds were further validated and characterized by dose-responsive analysis for potency and toxicity in HEI-OC1 cells; toxicity was assessed by a cell viability assay (CellTiter-Glo) with the test compounds alone (Fig. 1, B–D; and Fig. S1, E–K). The top 10 hits in this screen (with IC50 values in the HEI-OC1 cells of 0.04–6.2 µM) and their protective properties, as investigated in this study, are summarized in Table S1. The FDA has approved three of the compounds (leflunomide, [compound left out], and olsalazine sodium) for treating other medical conditions.

The target of a further series is CDK2 (Mus musculus, UniProt P97377). Briefly: immunoprecipitated CDK2 kinase assay, […]histone H1 substrate; cisplatin-treated cells ([…] from untreated cells). It is filed as biochemical.

Regarding `NS(=O)(=O)c1ccc(N=Nc2c(O)[nH]c3ccc(Br)cc23)cc1` [CDK2 inhibitor II], the CC50 at 22 h in “in vitro” is more than 40 µM.
In the case of `O=c1cc(CN2CCOCC2)occ1OCCCCCSc1ccnc2cc(C(F)(F)F)ccc12` [EHT1864], in the series “in vitro”, the CC50 at 22 h was more than 20 µM.
The same measure, in the same setting: under `CCOc1cc2ncc(C#N)c(Nc3ccc(F)c(Cl)c3)c2cc1NC(=O)/C=C/CN(C)C` [Pelitinib] stands more than 40 µM.
For the compound `CC[C@H](CO)Nc1nc(NCc2ccccc2O)c2ncn(C(C)C)c2n1` [Olomoucine II], the CC50 at 22 h in “in vitro” was more than 40 µM.
A word on the IC50: it is the point on the concentration scale where inhibition reaches its midpoint. Read a low IC50 as higher potency. On CDK2, `O=C1Cc2c([nH]c3ccc(Br)cc23)-c2ccccc2N1` [kenpaullone] registered an IC50 of 1.7 ± 0.9 µM. For the same compound, in the series “in vitro”, the CC50 at 22 h is more than 40 µM.
As for `O=C(O)c1cc(/N=N/c2ccc(O)c(C(=O)O)c2)ccc1O` [Olsalazine sodium], in “in vitro”, the CC50 at 22 h was more than 40 µM.
Consider `Cc1oncc1C(=O)Nc1ccc(C(F)(F)F)cc1` [Leflunomide], for which, in “in vitro”, the CC50 at 22 h is more than 40 µM.
Still for that read-out and setting: under `CCCCCC[C@H]1C(=O)O[C@H](C)[C@H](NC(=O)c2cccc(NC=O)c2O)C(=O)O[C@@H](C)[C@@H]1OC(=O)CC(C)C` [Antimycin A] stands more than 10 µM.
